Results as given in patent publication US6376497B1, “Antifungal azole derivatives having a fluorinated vinyl group and process for preparing same” (Korea Research Institute of Chemical Technology, priority 1999, dated 2002).

What was measured:
Test in all cases: In vitro antifungal activity, microbroth dilution MIC
Format in all cases: cell-based
Settings in all cases: RPMI-1640, 35° C., 4 to 48 hours, no growth observed
[1] = system: Aspergillus furnigatus B. 19119
Method in brief: (§1)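 Broth microdilution adapted from NCCLS M27, in RPMI-1640 with 0.165 M MOPS, pH 7.0. Yeast or mould inoculum at 2×10^3 CFU/ml was mixed 1:1 with DMSO-derived compound solutions (200 to 0.10 μg/ml before mixing) and incubated at 35 °C for 4 to 48 h. MIC was the concentration showing no growth.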

[2] = system: Aspergillus niger A. 16404
Method in brief: as §1

[3] = system: Candida albicans A. 10231
Method in brief: as §1

[4] = system: Candida albicans C1-2
Method in brief: as §1

[5] = system: Candida albicans IFO. 1385
Method in brief: as §1

[6] = system: Candida krusei K. 11655
Method in brief: as §1

[7] = system: Candida parapsitosis A. 7330
Method in brief: as §1

[8] = system: Candida pseudotropicalis K. 11658
Method in brief: as §1

[9] = system: Candida tropicalis A. 13803
Method in brief: as §1

[10] = system: Cryptococcus neoformans A. 34144
Method in brief: as §1

[11] = system: Cryptococcus neoformans B. 42419
Method in brief: as §1

[12] = system: Cryptococcus neoformans IFM. 40092
Method in brief: as §1

[13] = system: Torulopsis glabrata B. 16205
Method in brief: as §1

[14] = system: Trichophyton mentagrophytes A. 9129
Method in brief: as §1

[15] = system: Trichophyton mentagrophytes B. 32663
Method in brief: as §1

| Minimal inhibitory concentration(MIC), A furnigatus B. 19119 [1] [µg/mL] | Minimal inhibitory concentration(MIC), A. niger A. 16404 [2] [µg/mL] | Minimal inhibitory concentration(MIC), C. albicans A. 10231 [3] [µg/mL] | Minimal inhibitory concentration(MIC), C. albicans C1-2 [4] [µg/mL] | Minimal inhibitory concentration(MIC), C. albicans IFO. 1385 [5] [µg/mL] | Minimal inhibitory concentration(MIC), C. krusei K. 11655 [6] [µg/mL] | Minimal inhibitory concentration(MIC), C. parapsitosis A. 7330 [7] [µg/mL] | Minimal inhibitory concentration(MIC), C. pseudotropicalis K. 11658 [8] [µg/mL] | Minimal inhibitory concentration(MIC), C. tropicalis A. 13803 [9] [µg/mL] | Minimal inhibitory concentration(MIC), Cry. neoformans A. 34144 [10] [µg/mL] | Minimal inhibitory concentration(MIC), Cry. neoformans B. 42419 [11] [µg/mL] | Minimal inhibitory concentration(MIC), Cry. neoformans IFM. 40092 [12] [µg/mL] | Minimal inhibitory concentration(MIC), T. glabrata B. 16205 [13] [µg/mL] | Minimal inhibitory concentration(MIC), T. mentagrophytes A. 9129 [14] [µg/mL] | Minimal inhibitory concentration(MIC), T. mentagrophytes B. 32663 [15] [µg/mL] | Structure (SMILES) |
| --- | --- | --- | --- | --- | --- | --- | --- | --- | --- | --- | --- | --- | --- | --- | --- |
| >100 | >100 | 100 | 50.0 | 3.13 | >100 | >100 | 100 | >100 | 1.56 | 3.13 | 0.39 | 100 | 12.5 | 3.13 | Cc1cccc(C(=C(F)Oc2ccc(OCC3COC(Cn4ccnc4)(c4ccc(F)cc4F)O3)cc2)C(F)(F)F)c1 (mixture of isomers) [Ex. 107] |
| >100 | >100 | >100 | 100 | 6.25 | >100 | >100 | >100 | >100 | 3.13 | 3.13 | 0.78 | >100 | 50.0 | 12.5 | CCc1ccc(C(=C(F)Oc2ccc(OCC3COC(Cn4ccnc4)(c4ccc(F)cc4F)O3)cc2)C(F)(F)F)cc1 (mixture of isomers) [Ex. 108] |
| >100 | >100 | 100 | 50.0 | 3.13 | >100 | >100 | >100 | >100 | 1.56 | 3.13 | 0.39 | 100 | 6.25 | 3.13 | CC(C)(C)c1ccc(C(=C(F)Oc2ccc(OCC3COC(Cn4ccnc4)(c4ccc(F)cc4F)O3)cc2)C(F)(F)F)cc1 (mixture of isomers) [Ex. 109] |
| >100 | >100 | 100 | 50.0 | 3.13 | >100 | >100 | >100 | >100 | 1.56 | 3.13 | 0.39 | 100 | 6.25 | 3.13 | Cc1ccc(C(=C(F)Oc2ccc(OCC3COC(Cn4ccnc4)(c4ccc(F)cc4F)O3)cc2)C(F)(F)F)cc1C (mixture of isomers) [Ex. 110] |
| >100 | >100 | 100 | 50.0 | 3.13 | >100 | 100 | 100 | >100 | 1.56 | 3.13 | 0.39 | 100 | 6.25 | 3.13 | FC(Oc1ccc(OCC2COC(Cn3ccnc3)(c3ccc(F)cc3F)O2)cc1)=C(c1cccc(C(F)(F)F)c1)C(F)(F)F (mixture of isomers) [Ex. 111] |
| >100 | >100 | 25.0 | 12.5 | 1.56 | >100 | >100 | 25.0 | 100 | 1.56 | 1.56 | 0.39 | 50.0 | 6.25 | 3.13 | FC(Oc1ccc(OCC2COC(Cn3ccnc3)(c3ccc(F)cc3F)O2)cc1)=C(c1ccc2c(c1)OCO2)C(F)(F)F (mixture of isomers) [Ex. 112] |
| >100 | >100 | >100 | >100 | 3.13 | >100 | >100 | 100 | >100 | 1.56 | 3.13 | 0.39 | >100 | 25.0 | 12.5 | FC(Oc1ccc(OCC2COC(Cn3ccnc3)(c3ccc(F)cc3F)O2)cc1)=C(c1ccc(Oc2ccccc2)cc1)C(F)(F)F (mixture of isomers) [Ex. 113] |
| >100 | >100 | 50.0 | 25.0 | 1.56 | >100 | >100 | >100 | >100 | 1.56 | 1.56 | 0.39 | 50.0 | 6.25 | 3.13 | FC(Oc1ccc(OCC2COC(Cn3ccnc3)(c3ccc(F)cc3F)O2)cc1)=C(c1cccc(Cl)c1)C(F)(F)F (mixture of isomers) [Ex. 114] |
